Results published in PubChem BioAssay (NCI).
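Tested at 5 concentrations; 48 h exposure; 96-well plates; endpoints linearly interpolated, else capped at highest concentration. Here, GI50 denotes the concentration required for 50% inhibition of growth. TGI: concentration producing complete growth inhibition.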

What was measured:
Test in all cases: DTP human tumour cell line panel, 48 h
[1] = system: ACHN renal
[2] = system: SNB-19 CNS
[3] = system: UACC-62 melanoma
[4] = system: UO-31 renal
[5] = system: EKVX NSCLC
[6] = system: U251 CNS
[7] = system: NCI-H226 lung
[8] = system: RXF 393 renal
[9] = system: MALME-3M melanoma
[10] = system: NCI-H522 lung

Row | SMILES | TGI [1] [µM] | TGI [2] [µM] | TGI [3] [µM] | TGI [4] [µM] | TGI [5] [µM] | TGI [6] [µM] | TGI [7] [µM] | TGI [8] [µM] | TGI [9] [µM] | TGI [10] [µM] | GI50 [1] [µM] | GI50 [2] [µM] | GI50 [3] [µM] | GI50 [4] [µM] | GI50 [5] [µM] | GI50 [6] [µM] | GI50 [7] [µM] | GI50 [8] [µM] | GI50 [10] [µM] | GI50 [9] [µM]
1 | O=C1C(=O)N(C(=O)c2ccc(Cl)c(Cl)c2)c2ccc(Cl)cc21 | > 100 | > 100 | > 100 | > 100 | > 100 | > 100 | > 100 | > 100 |  |  |  |  |  |  |  |  |  |  |  | 
2 | O=c1c2ccccc2nc(-c2ccc(Br)cc2)n1NC1OC(CO)C(O)C(O)C1O (centres undefined) | > 100 | > 100 | > 100 | > 100 | > 100 | > 100 | > 100 |  | > 100 | > 100 |  |  |  |  |  |  |  |  |  | 
3 | CC(=O)NC(CCCCNC(=O)N(CCCl)N=O)C(=O)NCc1ccccc1 (centres undefined) | > 100 | > 100 | > 100 | > 100 | > 100 | > 100 | > 100 |  | > 100 | > 100 |  |  |  |  |  |  |  |  |  | 
4 | Cc1cc(C)c(O)c(Cc2cccc(Cc3cc(C)cc(C)c3O)c2O)c1 | > 100 | > 100 | > 100 | > 100 | > 100 | > 100 |  | > 100 | > 100 | > 100 |  |  |  |  |  |  |  |  |  | 
5 | Cc1ccc(S(=O)(=O)/N=c2\ssc(Nc3ccccc3)c2Cl)cc1 | 22.5 | > 50 | > 50 | > 50 | 16.9 | 21.3 | > 50 | 46.1 |  | > 50 | 9.58 | 12.8 | 13.5 | 21.3 | 6.03 | 8.92 | 19.2 | 13.6 | 19.8 | 
6 | CCOC(=O)/C(=C/c1ccc([N+](=O)[O-])cc1)C(=O)c1ccccc1 | 4.35 | 5.81 | 4.28 | 3.18 | 17.4 | 4.48 | 6.45 | 3.67 |  | 3.51 | 2.03 | 2.4 | 1.93 | 1.66 | 4.88 | 2.13 | 2.57 | 2 | 1.7 | 
7 | COc1cc(/C=C2\CN(C)C/C(=C\c3cc(OC)c(OC)c(OC)c3)C2=O)cc(OC)c1OC | 0.387 | 2.6 | 0.383 | 0.818 |  | 0.746 | 0.588 | 0.389 | 0.435 | 0.624 | 0.2 | 1.14 | 0.186 | 0.28 |  | 0.257 | 0.239 | 0.199 | 0.234 | 0.209
8 | COC(=O)C1=CN=C(C(=O)OC)NN1 | > 100 | > 100 | > 100 | > 100 |  | > 100 | > 100 | > 100 | > 100 | > 100 |  |  |  |  |  |  |  |  |  | 
9 | Cc1oc2c(C)c(O)c3c(c2c1C1(C)OCCO1)C(=O)C=C(Cl)C3=O | > 100 | > 100 |  | > 100 | > 100 | > 100 | > 100 | > 100 |  | > 100 |  |  |  |  |  |  |  |  |  | 
10 | O=C1N=C(c2ccccc2)OC1C(=O)c1ccccc1 (centres undefined) | > 100 | > 100 | > 100 | > 100 | > 100 | > 100 | > 100 | > 100 |  | > 100 |  |  |  |  |  |  |  |  |  | 
11 | Oc1ccc(CNCc2ccccc2)c2cccnc12 | 22.9 | > 100 | > 34.8 | > 24.4 | > 100 | 2.77 | 66.7 |  |  | > 100 |  |  |  |  |  |  |  |  |  | 
12 | C[C@@H](CO)OCOCc1ccccc1 |  | > 100 | > 100 | > 100 |  | > 100 |  | > 100 | > 100 | > 100 |  |  |  |  |  |  |  |  |  | 
13 | COc1ccc(N(CC(=O)NCCC[Te]c2ccccc2)C(=O)CCSC2=C(C)C(=O)c3ccccc3C2=O)cc1 | 3.47 | 12.1 | 4.31 | 2.45 | 2.98 | 2.32 |  | 4.47 | 4.51 | 3.59 | 1.57 | 2.91 | 1.82 | 0.437 | 0.326 | 0.553 |  | 2.07 | 0.948 | 2.25
14 | CCOC(=O)c1ccc(N(CCOS(C)(=O)=O)CCOS(C)(=O)=O)cc1C | 42.7 | > 100 | 95.4 | 45.9 | > 100 | > 100 |  | 33.3 | > 100 | 61.8 | 9.94 | 62.6 | 23.8 | 23.1 | 29.5 | 26.4 |  | 17.8 | 18.8 | 29
15 | COc1cc(C#N)cc(OC)c1OCCOCCOc1c(OC)cc(C#N)cc1OC | > 100 | > 100 | > 100 | > 100 | > 100 | > 100 | > 100 |  | > 100 | > 100 | > 100 | 94.4 | 33.1 | 26.4 | > 100 | > 100 | 81.2 |  | 31.2 | 58.1
16 | Cc1cc(O)c(C(c2cccnc2)c2c(O)cc(C)[nH]c2=O)c(=O)[nH]1 | > 100 | > 100 | > 100 | > 100 | > 100 | > 100 |  | > 100 | > 100 | > 100 |  |  |  |  |  |  |  |  |  | 
17 | O=C(O)c1ccc2c(c1Nc1ccccc1)C(=O)c1ccccc1C2=O | > 100 | > 100 | > 100 | > 100 | > 100 | > 100 | > 100 | > 100 | > 100 |  | 39.7 | 49.3 | 35.6 | 11.8 | 19.9 | 47 | 24.2 | 26.3 |  | 54.6
18 | COc1cc2nc(Sc3c([N+](=O)[O-])ncn3C)[nH]c2cc1OC | > 100 | > 100 | 75.8 | > 100 | 80.7 | > 100 | > 100 | 43.9 | > 100 |  |  |  |  |  |  |  |  |  |  | 
19 | Nc1ncnc2c1nc(-c1ccccc1)n2C1OC(CO)C(O)C1O (centres undefined) | > 100 | > 100 | > 100 | > 100 | > 100 | > 100 | > 100 | > 100 |  | > 100 |  |  |  |  |  |  |  |  |  | 
